Like-named read-outs stand apart in the source and are kept apart here.
Molecular target: T1, human CB2R (Homo sapiens, UniProt P34972)
T1 construct: host or cells: CHO cells
Assay: CB2R mediated modulation of cAMP synthesis
Format: cell-based
Conditions: for agonistic activity: found through the use of the above described assays
In short: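 CHO cells expressing human CB2R were treated with compound for 30 min at 37 °C in buffer containing 1 mM IBMX, 0.25% BSA and 10 uM forskolin. cAMP was measured after lysis. EC50 was taken as 50% inhibition of forskolin-stimulated cAMP, with 100% defined by 1 uM CP55940, using a four-parameter logistic fit.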

T1 sequence (P34972 whole entry): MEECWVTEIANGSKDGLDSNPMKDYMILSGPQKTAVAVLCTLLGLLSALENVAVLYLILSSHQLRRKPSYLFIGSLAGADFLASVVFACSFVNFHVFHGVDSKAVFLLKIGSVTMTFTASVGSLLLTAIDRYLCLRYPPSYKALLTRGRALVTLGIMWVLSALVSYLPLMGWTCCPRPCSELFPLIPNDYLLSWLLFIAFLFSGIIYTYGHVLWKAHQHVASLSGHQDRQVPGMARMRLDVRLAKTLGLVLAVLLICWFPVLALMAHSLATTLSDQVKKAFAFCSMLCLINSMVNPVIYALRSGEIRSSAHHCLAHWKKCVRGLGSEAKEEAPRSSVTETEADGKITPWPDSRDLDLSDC

SMILES	agonistic activity	EC50 [nM]	EC50 (CHO cells expressing human CB2R, inhibition of forskolin-stimulated cAMP synthesis, compounds having agonist activity, read-out: CB2 EC50) [nM]
CC(C)(C(=O)Nc1nc(C2CC2)cs1)S(=O)(=O)CC1CCOCC1 [N-(4-Cyclopropyl-thiazol-2-yl)-2-methyl-2-(tetrahydro-pyran-4-ylmethanesulfonyl)-propionamide]	agonistic activity		
CC(C)(C)c1cc(NC(=O)C(C)(C)S(=O)(=O)CC2CCCCC2)on1 [N-(3-tert-Butyl-isoxazol-5-yl)-2-cyclohexylmethanesulfonyl-2-methyl-propionamide]	agonistic activity	0.1	
CC(C)(C)c1csc(NC(=O)C(C)(C)S(=O)(=O)C2CCOCC2)n1 [N-(4-tert-Butyl-thiazol-2-yl)-2-methyl-2-(tetrahydro-pyran-4-sulfonyl)-propionamide]	agonistic activity		12.4
CC(C)(C(=O)Nc1nc(-c2ccccc2)cs1)S(=O)(=O)CC1CCOCC1 [2-Methyl-N-(4-phenyl-thiazol-2-yl)-2-(tetrahydro-pyran-4-ylmethanesulfonyl)-propionamide]	agonistic activity	7.1	
CC(C)(C)c1cc(NC(=O)C(C)(C)S(=O)(=O)CC2CCCCO2)no1 (stereo not drawn) [N-(5-tert-Butyl-isoxazol-3-yl)-2-methyl-2-(tetrahydro-pyran-2-ylmethanesulfonyl)-propionamide]	agonistic activity	0.2	
Cn1nc(C(C)(C)C)cc1NC(=O)C(C)(C)S(=O)(=O)C[C@H]1CCC(=O)N1 [N-(5-tert-Butyl-2-methyl-2H-pyrazol-3-yl)-2-methyl-2-((R)-5-oxo-pyrrolidin-2-ylmethanesulfonyl)-propionamide]	agonistic activity		
CC(C)(C(=O)Nc1ccc2ccccc2n1)S(=O)(=O)CC1CCOCC1 [2-Methyl-N-quinolin-2-yl-2-(tetrahydro-pyran-4-ylmethanesulfonyl)-propionamide]	agonistic activity	5.8	
Cc1sc(NC(=O)C(C)(C)S(=O)(=O)CC2CCOCC2)nc1-c1ccccc1 [2-Methyl-N-(5-methyl-4-phenyl-thiazol-2-yl)-2-(tetrahydro-pyran-4-ylmethanesulfonyl)-propionamide]	agonistic activity	2.5	
CC(C)S(=O)(=O)C(C)(C)C(=O)Nc1nc2c(s1)CCCC2 [2-Methyl-2-(propane-2-sulfonyl)-N-(4,5,6,7-tetrahydro-benzothiazol-2-yl)-propionamide]	agonistic activity		
Cn1nc(C(C)(C)C)cc1NC(=O)C(C)(C)S(=O)(=O)C[C@@H]1CCC(=O)N1 [N-(5-tert-Butyl-2-methyl-2H-pyrazol-3-yl)-2-methyl-2-((S)-5-oxo-pyrrolidin-2-ylmethanesulfonyl)-propionamide]	agonistic activity		
CC(C)S(=O)(=O)C(C)(C)C(=O)Nc1cc(C(C)(C)C)no1 [N-(3-tert-Butyl-isoxazol-5-yl)-2-methyl-2-(propane-2-sulfonyl)-propionamide]	agonistic activity		
CC(C)S(=O)(=O)C(C)C(=O)Nc1nc(C(C)(C)C)cs1 (stereo not drawn) [N-(4-tert-Butyl-thiazol-2-yl)-2-(propane-2-sulfonyl)-propionamide]	agonistic activity		
CC(C)(C)c1nnc(NC(=O)C(C)(C)S(=O)(=O)CC2CCOCC2)s1 [N-(5-tert-Butyl-[1,3,4]thiadiazol-2-yl)-2-methyl-2-(tetrahydro-pyran-4-ylmethanesulfonyl)-propionamide]	agonistic activity		
CC(C)(C(=O)Nc1nc(C2CCCCC2)cs1)S(=O)(=O)CC1CCOCC1 [N-(4-Cyclohexyl-thiazol-2-yl)-2-methyl-2-(tetrahydro-pyran-4-ylmethanesulfonyl)-propionamide]	agonistic activity	8.3	
CC(C)S(=O)(=O)C(C)(C)C(=O)Nc1cc2ccccc2cn1 [N-Isoquinolin-3-yl-2-methyl-2-(propane-2-sulfonyl)-propionamide]	agonistic activity		
CCCS(=O)(=O)C(C)(C)C(=O)Nc1cc(-c2cccs2)nn1C [2-Methyl-N-(2-methyl-5-thiophen-2-yl-2H-pyrazol-3-yl)-2-(propane-1-sulfonyl)-propionamide]	agonistic activity		
CC(C)(C(=O)Nc1ccc(C(F)(F)F)cn1)S(=O)(=O)C1CCCC1 [2-Cyclopentanesulfonyl-2-methyl-N-(5-trifluoromethyl-pyridin-2-yl)-propionamide]	agonistic activity		
Cn1nc(C(C)(C)C)cc1NC(=O)C(C)(C)S(=O)(=O)CC(C)(C)C [N-(5-tert-Butyl-2-methyl-2H-pyrazol-3-yl)-2-(2,2-dimethyl-propane-1-sulfonyl)-2-methyl-propionamide]	agonistic activity		
CC(C)(C(=O)Nc1nc(-c2ccccc2)ns1)S(=O)(=O)CC1CCOCC1 [2-Methyl-N-(3-phenyl-1,2,4-thiadiazol-5-yl)-2-(tetrahydro-pyran-4-ylmethanesulfonyl)-propionamide]	agonistic activity		

SMILES	agonistic activity	EC50 [nM]	EC50 (CHO cells expressing human CB2R, inhibition of forskolin-stimulated cAMP synthesis, compounds having agonist activity, read-out: CB2 EC50) [nM]
Cn1nc(-c2ccccc2)cc1NC(=O)C(C)(C)S(=O)(=O)CC1CCOCC1 [2-Methyl-N-(2-methyl-5-phenyl-2H-pyrazol-3-yl)-2-(tetrahydro-pyran-4-ylmethanesulfonyl)-propionamide]	agonistic activity		
CC(C)(C(=O)Nc1ccc(C(F)(F)F)cn1)S(=O)(=O)CC1CCCCO1 (stereo not drawn) [2-Methyl-2-(tetrahydro-pyran-2-ylmethanesulfonyl)-N-(5-trifluoromethyl-pyridin-2-yl)-propionamide]	agonistic activity		
CC(C)(C)c1cc(NC(=O)C(C)(C)S(=O)(=O)CC2CCOCC2)no1 [N-(5-tert-Butyl-isoxazol-3-yl)-2-methyl-2-(tetrahydro-pyran-4-ylmethanesulfonyl)-propionamide]	agonistic activity		
CC(C)CCS(=O)(=O)C(C)(C)C(=O)Nc1ccc(C(F)(F)F)cn1 [2-Methyl-2-(3-methyl-butane-1-sulfonyl)-N-(5-trifluoromethyl-pyridin-2-yl)-propionamide]	agonistic activity	19.9	
CC(C)(C(=O)Nc1cc(C(F)(F)F)ccn1)S(=O)(=O)CC1CCOCC1 [2-Methyl-2-(tetrahydro-pyran-4-ylmethanesulfonyl)-N-(4-trifluoromethyl-pyridin-2-yl)-propionamide]	agonistic activity		
CC(=O)N1CCCC(CS(=O)(=O)C(C)(C)C(=O)Nc2cc(C(C)(C)C)on2)C1 (stereo not drawn) [2-(1-Acetyl-piperidin-3-ylmethanesulfonyl)-N-(5-tert-butyl-isoxazol-3-yl)-2-methyl-propionamide]	agonistic activity		
CC(C)(C)c1cc(NC(=O)C(C)(C)S(=O)(=O)C2CCCC2)no1 [N-(5-tert-Butyl-isoxazol-3-yl)-2-cyclopentanesulfonyl-2-methyl-propionamide]	agonistic activity	2.4	
CC(C)S(=O)(=O)C(C)(C)C(=O)Nc1cc(C(C)(C)C)on1 [N-(5-tert-Butyl-isoxazol-3-yl)-2-methyl-2-(propane-2-sulfonyl)-propionamide]	agonistic activity		
CC(C)S(=O)(=O)C(C)(C)C(=O)Nc1nc(-c2ccncc2)cs1 [2-Methyl-2-(propane-2-sulfonyl)-N-(4-pyridin-4-yl-thiazol-2-yl)-propionamide]	agonistic activity		
Cn1nc(C(C)(C)C)cc1NC(=O)C(C)(C)S(=O)(=O)C1CCOCC1 [N-(5-tert-Butyl-2-methyl-2H-pyrazol-3-yl)-2-methyl-2-(tetrahydro-pyran-4-sulfonyl)-propionamide]	agonistic activity		
CC(C)(C)c1csc(NC(=O)C(C)(C)S(=O)(=O)C2CCCC2)n1 [N-(4-tert-Butyl-thiazol-2-yl)-2-cyclopentanesulfonyl-2-methyl-propionamide]	agonistic activity	19	
CC(C)(C(=O)Nc1nc(-c2ccc(Cl)cc2)cs1)S(=O)(=O)CC1CCOCC1 [N-[4-(4-Chloro-phenyl)-thiazol-2-yl]-2-methyl-2-(tetrahydro-pyran-4-ylmethanesulfonyl)-propionamide]	agonistic activity	2.2	
CC(C)(C(=O)Nc1nnc(-c2ccccc2)[nH]1)S(=O)(=O)C1CCCC1 [2-Cyclopentanesulfonyl-2-methyl-N-(5-phenyl-4H-1,2,4-triazol-3-yl)-propionamide]	agonistic activity	3.8	
Cc1nc(NC(=O)C(C)(C)S(=O)(=O)C(C)(C)C)sc1C(C)(C)C [N-(5-tert-Butyl-4-methyl-thiazol-2-yl)-2-methyl-2-(2-methyl-propane-2-sulfonyl)-propionamide]	agonistic activity	10.7	
CC(C)(C)c1csc(NC(=O)C(C)(C)S(=O)(=O)Cc2ccc(Cl)cc2)n1 [N-(4-tert-Butyl-thiazol-2-yl)-2-(4-chloro-phenylmethanesulfonyl)-2-methyl-propionamide]	agonistic activity		
CC(C)(C)c1csc(NC(=O)C(C)(C)S(=O)(=O)CC2CCOCC2)n1 [N-(4-tert-Butyl-thiazol-2-yl)-2-methyl-2-(tetrahydro-pyran-4-ylmethanesulfonyl)-propionamide]	agonistic activity		
CC(C)(C(=O)Nc1nc(-c2cccnc2)cs1)S(=O)(=O)CC1CCOCC1 [2-Methyl-N-(4-pyridin-3-yl-thiazol-2-yl)-2-(tetrahydro-pyran-4-ylmethanesulfonyl)-propionamide]	agonistic activity		
CC(C)(C)c1cc(NC(=O)C(C)(C)S(=O)(=O)CC2CCOC2)on1 (stereo not drawn) [N-(3-tert-Butyl-isoxazol-5-yl)-2-methyl-2-(tetrahydro-furan-3-ylmethanesulfonyl)-propionamide]	agonistic activity	18.5	
